pIC50: −log10 of the molar value.
Target: Mitogen-activated protein kinase 14 (Homo sapiens, UniProt Q16539)
Experiment: P38 MAP Kinase Assay
Conditions: pH 7.5; 37 °C
Source text: Kinase assay using p38alpha MAP.

Sequence of Mitogen-activated protein kinase 14 (Q16539 whole entry): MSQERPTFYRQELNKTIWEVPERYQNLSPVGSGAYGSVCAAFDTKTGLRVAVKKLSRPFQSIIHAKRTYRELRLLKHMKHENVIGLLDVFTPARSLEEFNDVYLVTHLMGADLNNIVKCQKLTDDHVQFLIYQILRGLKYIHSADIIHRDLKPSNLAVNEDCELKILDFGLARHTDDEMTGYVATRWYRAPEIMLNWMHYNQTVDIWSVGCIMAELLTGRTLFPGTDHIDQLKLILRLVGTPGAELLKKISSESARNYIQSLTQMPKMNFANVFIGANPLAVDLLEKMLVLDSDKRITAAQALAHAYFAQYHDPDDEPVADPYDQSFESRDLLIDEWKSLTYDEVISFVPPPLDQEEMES

pIC50 | Compound
5.58 | N#Cc1c(-c2c[nH]c3ccccc23)cc(-c2ccc(Br)cc2)nc1N [MAP Kinase Inhibitor, 6]
5.36 | N#Cc1c(-c2ccc(Br)cc2)cc(-c2ccc(Br)cc2)[nH]c1=O [MAP Kinase Inhibitor, 14]
6.12 | N#Cc1c(-c2ccc(Br)cc2)cc(-c2ccc(Br)cc2)nc1N [MAP Kinase Inhibitor, 7]
5.43 | N#Cc1c(-c2ccc(Cl)c(Cl)c2)cc(-c2ccc(Br)cc2)nc1N [MAP Kinase Inhibitor, 4]
6.92 | N#Cc1c(-c2ccc(Cl)c(Cl)c2)cc(-c2ccc(Br)cc2)[nH]c1=O [MAP Kinase Inhibitor, 11]
5.43 | N#Cc1c(-c2cccnc2)cc(-c2ccc(Br)cc2)nc1N [MAP Kinase Inhibitor, 3]
5.91 | COc1cc(-c2cc(-c3ccc(Br)cc3)[nH]c(=O)c2C#N)cc(OC)c1OC [MAP Kinase Inhibitor, 8]
7.15 | Cc1ccc(-c2cc(-c3ccc(Br)cc3)nc(N)c2C#N)o1 [MAP Kinase Inhibitor, 2]
5.70 | COc1cc(-c2cc(-c3ccc(Br)cc3)nc(N)c2C#N)cc(OC)c1OC [MAP Kinase Inhibitor, 1]

Source: BindingDB's records for doi:10.1021/cc1000488 (German University In Cairo, 2010)
